Data taken from patent publication US20150307520A1, “NOVEL HETEROARYL AND HETEROCYCLE COMPOUNDS, COMPOSITIONS AND METHODS THEREOF” (HUTCHISON MEDIPHARMA LIMITED, priority 2012, published 2015).

Experiments:
Format in all cases: biochemical
p110α/p85α = p110α/p85α (Homo sapiens, UniProt P42336); experiment: Transcreener KINASE Assay, kinase inhibition of p110α/p85α; details: 1 uM test compound
Protocol: PI3K kinases including p110α/p85α, p110δ/p85α and p110γ are purchased from Invitrogen, and p110β/p85α is from Millipore.
Primary screening data and IC50 values are measured using Transcreener™ KINASE Assay (Bellbrook, Catalog #3003-10K). […] It is a universal, homogenous, high throughput screening (HTS) technology using a far-red, competitive fluorescence polarization immunoassay based on the detection of ADP to monitor the activity of enzymes that catalyze group transfer reactions. Briefly, the Transcreener KINASE Assay is designed as a simple two-part, endpoint assay.
In the first step, the 25 ul kinase reaction is performed by preparing a reaction mixture containing 5 ul test compound (2% DMSO final concentration), 10 ul kinase, buffer (50 mM HEPES, 100 mM NaCl, 1 mM EGTA, 0.03% CHAPS, 3 mM MgCl2, and freshly supplemented 1 mM DTT), and 10 ul 30 uM PIP2/10 uM ATP. The plate is sealed and incubated for 80 min at room temperature. Next, 25 ul ADP detection mix is added per well. The plate is sealed again and incubated for 60 min at room temperature, and then measure fluorescence polarization by Tecan Infinite F500 Reader.
Data is analyzed and IC50s are generated using the add-in software for Microsoft Excel, Xlfit™ (version 2.0). IH %=(ADP amount under 2% DMSO-ADP amount under test compound)/ADP amount under 2% DMSO.

p110β/p85α = p110β/p85α (Homo sapiens, UniProt P42338); experiment: Transcreener KINASE Assay, kinase inhibition of p110β/p85α; details: for PI3Kβ IH % @ 1 uM: 1 uM test compound; for IC50: read-out: PI3Kβ IC50
Method in brief: (§1)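 Kinase reactions run 80 min at room temperature, pH buffered with 50 mM HEPES plus 3 mM MgCl2 and 0.03% CHAPS; the PIP2/ATP mix added was 30 uM/10 uM. Generated ADP is then read by FP immunoassay.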

p110δ/p85α = p110δ/p85α (Homo sapiens, UniProt O00329); experiment: Transcreener KINASE Assay, kinase inhibition of p110δ/p85α; details: for PI3Kδ IH % @ 1 uM: 1 uM test compound; for IC50: read-out: PI3Kδ IC50
Method in brief: as §1

p110γ = p110γ (Homo sapiens, UniProt P48736); experiment: Transcreener KINASE Assay, kinase inhibition of p110γ; details: for PI3Kγ IH % @ 1 uM: 1 uM test compound; for IC50: read-out: PI3Kγ IC50
Method in brief: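 Recombinant PI3K isoforms (p85α complexes or p110γ alone) reacted 80 min at room temperature, then ADP detection mix added for 60 min. ADP formation read by far-red competitive fluorescence polarization immunoassay; IC50 by curve fitting.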

Sequence of p110α/p85α (P42336 whole entry): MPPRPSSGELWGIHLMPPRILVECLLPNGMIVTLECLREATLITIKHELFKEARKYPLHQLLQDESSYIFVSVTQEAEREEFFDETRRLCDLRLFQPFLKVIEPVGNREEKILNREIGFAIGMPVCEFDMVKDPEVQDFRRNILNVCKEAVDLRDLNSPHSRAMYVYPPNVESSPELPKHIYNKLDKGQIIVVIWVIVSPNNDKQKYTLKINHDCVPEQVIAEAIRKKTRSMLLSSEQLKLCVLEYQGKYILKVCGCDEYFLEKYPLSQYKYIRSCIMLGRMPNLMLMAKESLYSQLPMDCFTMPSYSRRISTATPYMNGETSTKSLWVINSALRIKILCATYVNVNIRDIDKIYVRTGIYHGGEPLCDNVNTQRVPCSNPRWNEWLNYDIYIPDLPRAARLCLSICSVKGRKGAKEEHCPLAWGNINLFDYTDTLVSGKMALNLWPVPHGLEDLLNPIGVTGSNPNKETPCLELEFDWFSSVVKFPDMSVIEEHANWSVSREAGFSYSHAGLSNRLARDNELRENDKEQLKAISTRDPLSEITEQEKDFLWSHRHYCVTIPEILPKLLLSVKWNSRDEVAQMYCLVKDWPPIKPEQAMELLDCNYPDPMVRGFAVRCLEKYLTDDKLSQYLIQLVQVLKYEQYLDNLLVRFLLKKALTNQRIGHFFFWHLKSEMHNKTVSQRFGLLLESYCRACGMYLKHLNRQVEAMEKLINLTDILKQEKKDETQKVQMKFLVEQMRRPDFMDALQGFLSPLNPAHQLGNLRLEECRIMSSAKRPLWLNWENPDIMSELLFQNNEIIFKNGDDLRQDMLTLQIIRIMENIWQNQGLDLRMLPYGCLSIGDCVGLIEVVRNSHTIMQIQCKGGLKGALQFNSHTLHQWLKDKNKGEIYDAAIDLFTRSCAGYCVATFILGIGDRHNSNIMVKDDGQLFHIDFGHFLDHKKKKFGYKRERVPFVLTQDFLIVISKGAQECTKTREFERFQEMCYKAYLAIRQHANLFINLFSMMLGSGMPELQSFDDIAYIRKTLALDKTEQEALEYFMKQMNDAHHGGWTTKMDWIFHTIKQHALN
Sequence of p110α/p85α (P27986 whole entry partner): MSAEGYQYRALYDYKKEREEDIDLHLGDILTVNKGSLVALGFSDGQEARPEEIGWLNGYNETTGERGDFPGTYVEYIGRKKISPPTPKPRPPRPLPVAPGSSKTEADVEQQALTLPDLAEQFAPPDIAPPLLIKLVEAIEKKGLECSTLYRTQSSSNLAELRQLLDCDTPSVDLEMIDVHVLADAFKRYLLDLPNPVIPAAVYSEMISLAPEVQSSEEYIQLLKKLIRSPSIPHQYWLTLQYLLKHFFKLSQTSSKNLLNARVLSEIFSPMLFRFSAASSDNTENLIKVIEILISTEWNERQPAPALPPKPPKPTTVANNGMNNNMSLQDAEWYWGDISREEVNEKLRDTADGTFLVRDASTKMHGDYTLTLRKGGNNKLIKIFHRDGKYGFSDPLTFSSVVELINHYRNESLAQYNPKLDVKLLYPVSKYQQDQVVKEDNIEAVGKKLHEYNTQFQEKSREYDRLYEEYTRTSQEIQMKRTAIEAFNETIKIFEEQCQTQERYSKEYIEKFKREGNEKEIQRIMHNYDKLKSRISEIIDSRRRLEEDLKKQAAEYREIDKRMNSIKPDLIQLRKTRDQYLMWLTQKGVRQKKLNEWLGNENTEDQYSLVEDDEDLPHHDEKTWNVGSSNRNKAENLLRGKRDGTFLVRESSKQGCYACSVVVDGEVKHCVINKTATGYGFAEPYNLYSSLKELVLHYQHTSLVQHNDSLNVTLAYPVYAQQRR
Sequence of p110γ (P48736 whole entry, canonical isoform): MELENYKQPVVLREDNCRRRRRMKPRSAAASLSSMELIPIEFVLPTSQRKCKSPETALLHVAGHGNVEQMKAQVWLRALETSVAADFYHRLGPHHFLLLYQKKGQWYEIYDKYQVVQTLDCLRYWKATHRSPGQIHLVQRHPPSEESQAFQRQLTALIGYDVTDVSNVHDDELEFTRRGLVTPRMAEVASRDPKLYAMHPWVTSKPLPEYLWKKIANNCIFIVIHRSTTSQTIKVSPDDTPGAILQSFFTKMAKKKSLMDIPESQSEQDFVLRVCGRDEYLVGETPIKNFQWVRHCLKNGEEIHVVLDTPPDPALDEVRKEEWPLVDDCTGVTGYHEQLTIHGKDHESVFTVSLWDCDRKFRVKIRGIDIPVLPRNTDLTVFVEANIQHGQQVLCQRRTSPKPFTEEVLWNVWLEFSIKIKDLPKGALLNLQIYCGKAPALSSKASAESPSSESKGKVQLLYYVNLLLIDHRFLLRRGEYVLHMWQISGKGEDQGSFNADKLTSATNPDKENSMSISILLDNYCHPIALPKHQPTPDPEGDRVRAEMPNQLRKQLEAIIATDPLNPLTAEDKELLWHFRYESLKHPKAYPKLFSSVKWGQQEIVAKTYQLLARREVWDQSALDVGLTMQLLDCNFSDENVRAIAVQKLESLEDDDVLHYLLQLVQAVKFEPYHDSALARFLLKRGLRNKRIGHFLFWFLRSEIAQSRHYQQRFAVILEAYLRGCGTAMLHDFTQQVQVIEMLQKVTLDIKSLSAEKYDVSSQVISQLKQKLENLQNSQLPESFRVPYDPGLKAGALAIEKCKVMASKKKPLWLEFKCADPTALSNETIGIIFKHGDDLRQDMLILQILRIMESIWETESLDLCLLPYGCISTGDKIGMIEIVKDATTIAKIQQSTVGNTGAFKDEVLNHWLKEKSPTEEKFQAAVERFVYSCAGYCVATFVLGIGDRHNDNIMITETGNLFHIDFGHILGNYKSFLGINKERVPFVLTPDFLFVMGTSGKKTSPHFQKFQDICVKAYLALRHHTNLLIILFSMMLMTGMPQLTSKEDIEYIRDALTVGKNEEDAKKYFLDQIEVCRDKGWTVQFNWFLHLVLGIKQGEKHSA
Sequence of p110β/p85α (P42338 whole entry): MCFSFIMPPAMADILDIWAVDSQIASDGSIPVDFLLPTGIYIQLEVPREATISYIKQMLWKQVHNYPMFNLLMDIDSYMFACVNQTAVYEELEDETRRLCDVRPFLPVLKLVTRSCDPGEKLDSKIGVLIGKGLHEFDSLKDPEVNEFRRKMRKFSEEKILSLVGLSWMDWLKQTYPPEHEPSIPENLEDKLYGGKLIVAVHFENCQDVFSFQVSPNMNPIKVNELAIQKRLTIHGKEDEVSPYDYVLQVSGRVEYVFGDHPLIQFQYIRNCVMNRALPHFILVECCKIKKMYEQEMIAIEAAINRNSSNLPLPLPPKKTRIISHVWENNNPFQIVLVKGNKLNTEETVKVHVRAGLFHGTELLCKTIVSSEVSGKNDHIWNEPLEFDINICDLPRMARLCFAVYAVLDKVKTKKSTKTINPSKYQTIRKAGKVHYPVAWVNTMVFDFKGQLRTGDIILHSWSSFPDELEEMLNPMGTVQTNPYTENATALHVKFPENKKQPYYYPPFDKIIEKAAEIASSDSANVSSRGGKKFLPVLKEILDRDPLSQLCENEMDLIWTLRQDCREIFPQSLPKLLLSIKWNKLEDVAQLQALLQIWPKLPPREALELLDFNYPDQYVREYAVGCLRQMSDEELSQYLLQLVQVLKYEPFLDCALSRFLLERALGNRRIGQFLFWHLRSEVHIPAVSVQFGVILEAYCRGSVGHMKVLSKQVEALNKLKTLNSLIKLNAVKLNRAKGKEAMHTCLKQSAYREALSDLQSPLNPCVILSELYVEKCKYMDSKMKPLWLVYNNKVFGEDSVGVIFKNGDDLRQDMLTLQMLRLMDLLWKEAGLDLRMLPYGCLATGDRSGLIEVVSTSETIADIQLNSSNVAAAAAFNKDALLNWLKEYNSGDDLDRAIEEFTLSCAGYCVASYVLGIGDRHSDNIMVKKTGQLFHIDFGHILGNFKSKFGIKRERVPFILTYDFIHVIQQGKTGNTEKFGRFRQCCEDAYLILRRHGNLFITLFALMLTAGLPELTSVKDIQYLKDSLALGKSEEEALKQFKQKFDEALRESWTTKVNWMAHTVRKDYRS
Sequence of p110β/p85α (P27986 2-724 partner): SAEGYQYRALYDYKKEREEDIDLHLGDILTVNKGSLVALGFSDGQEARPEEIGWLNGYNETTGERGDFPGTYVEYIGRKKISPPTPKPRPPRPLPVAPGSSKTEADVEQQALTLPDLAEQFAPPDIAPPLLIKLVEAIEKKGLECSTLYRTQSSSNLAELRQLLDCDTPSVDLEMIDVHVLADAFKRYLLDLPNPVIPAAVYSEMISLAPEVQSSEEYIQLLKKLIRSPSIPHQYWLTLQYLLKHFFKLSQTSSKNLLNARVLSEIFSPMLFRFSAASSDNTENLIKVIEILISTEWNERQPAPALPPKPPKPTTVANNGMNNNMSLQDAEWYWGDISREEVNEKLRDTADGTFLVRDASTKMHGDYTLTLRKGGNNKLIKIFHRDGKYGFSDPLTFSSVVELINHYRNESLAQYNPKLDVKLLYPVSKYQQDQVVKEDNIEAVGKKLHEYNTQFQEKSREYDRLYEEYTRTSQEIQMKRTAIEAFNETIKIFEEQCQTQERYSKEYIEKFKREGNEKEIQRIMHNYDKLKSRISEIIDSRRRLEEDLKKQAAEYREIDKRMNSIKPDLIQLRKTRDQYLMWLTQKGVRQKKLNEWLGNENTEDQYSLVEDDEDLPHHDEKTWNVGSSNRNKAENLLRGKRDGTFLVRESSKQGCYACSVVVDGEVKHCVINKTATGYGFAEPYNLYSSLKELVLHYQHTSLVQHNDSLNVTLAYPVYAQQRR

Row | PI3Kα IH % @ 1 uM (p110α/p85α) [%] | PI3Kβ IH % @ 1 uM (p110β/p85α) [%] | IC50 (p110β/p85α) [µM] | PI3Kδ IH % @ 1 uM (p110δ/p85α) [%] | IC50 (p110δ/p85α) [µM] | PI3Kγ IH % @ 1 uM (p110γ) [%] | IC50 (p110γ) [µM] | Compound
1 | 54.5 | 96.7 | 0.013 | >100 | 0.001 | 94.8 | 0.008 | N#Cc1c(N)ncnc1N1CCC[C@H]1c1nn2ccc(Cl)c2c(=O)n1-c1ccccc1 [Compound 32]
2 | 54.0 | 87.0 | 0.087 | 97.5 | 0.001 | 89.2 | 0.015 | Cc1ccn2nc([C@@H]3CCCN3c3ncnc(N)c3C#N)n(-c3ccccc3)c(=O)c12 [Compound 189, (S)-4-amino-6-(2-(5-methyl-4-oxo-3-phenyl-3,4-dihydropyrrolo[2,1-f][1,2,4]triazin-2-yl)pyrrolidin-1-yl)pyrimidine-5-carbonitrile]
3 | 33.6 | 69.5 | 0.42 | >100 | 0.003 | 92.7 | – | O=c1c2c(Cl)ccn2nc([C@@H]2C[C@H](F)CN2c2ncnc3[nH]cnc23)n1-c1ccccc1 [Compound 73, 5-chloro-2-((2S,4S)-4-fluoro-1-(9H-purin-6-yl)pyrrolidin-2-yl)-3-phenylpyrrolo[2,1-f][1,2,4]triazin-4(3H)-one]
4 | 14.7 | 68.7 | – | 98.8 | – | >100 | – | C[S+]([O-])c1c[nH]c2ncnc(N3CCC[C@H]3c3nn4ccc(Cl)c4c(=O)n3-c3ccccc3)c12 (stereo partly drawn) [Compound 188]
5 | 17.4 | 82.4 | 0.323 | >100 | 0.001 | >100 | 0.01 | C[S+]([O-])c1c[nH]c2ncnc(N3CCC[C@H]3c3nn4ccc(Cl)c4c(=O)n3-c3cccc(F)c3)c12 (stereo partly drawn) [Compound 198]
6 | −6.6 | 24.7 | – | 94.1 | 0.057 | 61.2 | – | COc1cccc(-n2c([C@@H]3CCN3c3ncnc(N)c3C#N)nn3ccc(Cl)c3c2=O)c1 [Compound 35]
7 | 40.3 | 87.8 | 0.086 | 99.0 | 0.001 | 96.2 | 0.01 | CC(Nc1ncnc2[nH]cc(C#N)c12)c1cc2ccc(Cl)n2c(=O)n1-c1cccc(F)c1 (stereo not drawn) [Compound 128]
8 | −18.6 | 17.7 | – | 50.4 | – | 16.6 | – | O=c1c2cccn2nc([C@@H]2CCN2c2ncnc3[nH]cnc23)n1-c1ccccc1 [Compound 7]
9 | 14.1 | 84.4 | – | 99.0 | 0.001 | >100 | – | C[S+]([O-])c1c[nH]c2ncnc(N3CCC[C@H]3c3nn4ccc(Cl)c4c(=O)n3-c3ccccc3)c12 (stereo partly drawn) [Compound 187]
10 | 14.7 | 68.7 | 0.741 | 98.8 | 0.004 | >100 | 0.017 | C[S@@+]([O-])c1c[nH]c2ncnc(N3CCC[C@H]3c3nn4ccc(Cl)c4c(=O)n3-c3ccccc3)c12 [Compound 383, 5-chloro-2-((S)-1-(5-((R)-methylsulfinyl)-7H-pyrrolo[2,3-d]pyrimidin-4-yl)pyrrolidin-2-yl)-3-phenylpyrrolo[2,1-f][1,2,4]triazin-4(3H)-one]
11 | 48.3 | 78.3 | 0.222 | >100 | 0.005 | 93.5 | 0.034 | Cc1ccn2cc(C(C)Nc3ncnc4[nH]cc(C#N)c34)n(-c3ccccc3)c(=O)c12 (stereo not drawn) [Compound 91]
